Read-outs that look alike come from different tables or passages of the source.
Key:
TNBC cells = assay: Immunofluorescence microscopy for basal and luminal markers; type: cell-based, human; conditions: 3 days after JQ1 (500 nM)
Description: Antibodies used for immunofluorescence were CK18 (Dako, M7010), CK17 (Dako, M7046), HMW (Dako, M0630), LMW (Dako, M0631), CD44 (NeoMarkers, MS-668-P1), CD24 (NeoMarkers, MS-1279-P1), p-STAT3 (Cell Signaling, 9145S), VIM (Dako, M073501), CDH1 (BD Biosciences, 610181), FLAG (Sigma, F1804), BrdU (Roche, 11170376001). Immunofluorescence experiments were performed in cultured cells or in whole sections of formalin-fixed paraffin embedded (FFPE) xenograft tumors. The staining was performed as described^50. Antibody dilutions were as follows: pSTAT3 (1:25), CD44 (1:100), CD24 (1:100), CK18 (1:200), CK17 (1:200), HMK (1:200), LMK (1:200), VIM (1:100), CDH1 (1:100), FLAG (1:50), and BrdU (1:200).

[1] = test system: tumors derived from MDA-MB-231; assay: Xenograft assay, MDA-MB-231; type: in vivo, mice; conditions: two weeks of JQ1, 50 mg/kg daily
Description: (§1) For xenograft assays 5-6-weeks old female CrTac:NCr-Foxn1^nu and NOD.Cg-Prkdc^scid Il2rg^tm1Sug/JicTac mice were purchased from Taconic. Tumors were induced by bilateral orthotopic mammary fat pad injection of 1×10^6 cells in 50% Matrigel (BD Biosciences) in DMEM/F12 or Medium 171 (except for IDC50-X cells, which were injected with 3% FBS and 4 mg/ml collagen gel in Medium 171). Animal experiments were conducted following protocol 11-023 approved by the Dana-Farber Cancer Institute Animal Care and Use Committee.

[2] = test system: tumors derived from SUM159; assay: Xenograft assay, SUM159; type: in vivo, mice; conditions: two weeks of JQ1, 50 mg/kg daily
Description: as §1

[3] = biological target: T1, chromatin-bound BRD4 in SUM159 cells (Homo sapiens, UniProt O60885); conditions: SUM159, JQ1 exposure
Description: Chem-seq was performed essentially as described^27. ChIP-seq: SUM159 and SUM159R cells (4×10^7) were grown in SUM Medium. The media were then removed and replaced with media containing 1% formaldehyde (EM grade; tebu-bio) and crosslinked for 8 min. Crosslinking was quenched by adding glycine to a final concentration of 0.2 M. The cells were washed with ice-cold PBS, harvested in PBS, and the cell pellet was washed with PBS. The nuclear fraction was extracted by first resuspending the pellet in 10 ml of LB1 buffer (50 mM HEPES-KOH [pH 7.5], 140 mM NaCl, 1mMEDTA, 10% glycerol, 0.5% NP-40 or Igepal CA-630, and 0.25% Triton X-100) for 10 min at 4° C. Cells were pelleted, resuspended in 10 ml of LB2 buffer (10 mM Tris-HCL [pH 8.0], 200 mM NaCl, 1 mM EDTA, and 0.5 mM EGTA), and mixed for 5 min. Cells were pelleted and resuspended in 300 μl of LB3 buffer (10 mM Tris-HCl [pH 8], 100 mM NaCl, 1 mM EDTA, 0.5 mM EGTA, 0.1% Na-deoxycholate, and 0.5% N-lauroylsarcosine) and sonicated in a covaris sonicator for 10 min. A total of 30 μl of 10% Triton X-100 was added, and lysate was centrifuged for 10 min at 20,000 rcf to purify the debris. The supernatant was then incubated with 100 μl of magnetic beads (Life Technologies) prebound with 20 μg BRD4 antibody (Bethyl, A301-985A), and immunoprecipitation (IP) was conducted overnight in the cold room. […]

SUM159 cells = assay: Apoptosis (sub-G1 fraction and Annexin-V staining); type: cell-based, human; conditions: prolonged exposure 48-72 hours, JQ1 500 nM
Description: Cell viability and growth assays (FIGS. 1A-1B, FIGS. 3A-3E, 3G, FIGS. 5D-5F, FIGS. 6C, 6E, 6I, FIG. 7A, FIG. 10D, FIGS. 14A-14C), cycle, apoptosis, and MDR assays were performed in triplicates and repeated 2-3 times. For cell proliferation assays, cells were plated at 500 cells per well in 96-well plates and treated the next day with inhibitors, DMSO or doxycycline (500 ng). Cells were cultured at 37° C. with 5% CO2 in the media described-above, and cell viability was measured using CellTiter-Glo three days after treatments. For cell growth assays, cells were plated at 5000 (SUM159) or 20000 (SUM149) cells per well in 6-well plates and treated the next day with inhibitors. Cells were counted every three days by cell counter. Cellular apoptosis was analyzed with an APC AnnexinV/7ADD Apoptosis Detection kit (BD Pharmingen). AnnexinV/7AAD assessments and cell cycle graphics were generated using FlowJo software V7.6.1 for Windows (Tree Star). Senescence Beta-gal staining was performed using Senescence β-Galactosidase staining kit from Cell signaling. Briefly, after JQ1 treatment (500 nM) for 72 h, SUM159 and MDA-MB-231 cells were fixed by Fixative Solution for 15 min, followed by β-Galactosidase solution incubation overnight at 37° C. The staining was checked under microscope for the development of blue color. […] The cells were analyzed by fluorescent microscope and FACS. […]

[4] = biological target: BRD4-MED1 association in SUM159 cells (Homo sapiens, UniProt O60885); assay: BRD4 immunoprecipitation followed by immunoblot for MED1, resistant cells; type: cell-based; design: Observations from RIME data were pursued by BRD4 immunoprecipitation followed by immunoblot analysis for MED1 and BRD3; endogenous in cells; host or cells: SUM159 and SUM159R cells (nuclear extracts); conditions: resistant cells
Description: Cells were lysed five days after transfection with siRNAs in RIPA buffer. Proteins were resolved in SDS-polyacrylamide gels (4%-12%) and transferred to PVDF membranes by using a Tris-glycine buffer system. […] Cells were incubated on ice for 15 min and gently vortexed every 5 min. […] After centrifugation of the lysates at 14 g for 10 min at 4° C., supernatant was diluted with 0.6 ml buffer A, and added NP-40 to final 0.5% and treated with DNase I. The samples were then incubated at 4° C. overnight with BRD4 or Flag antibodies at 1:100 dilution and immunoprecipitates were collected on Dynabeads Protein G for 2 hr. Beads were washed with buffer B containing 150 mM NaCl and 0.5% NP-40 three times and then resuspended in gel loading buffer. Immunoblotting and immunoprecipitation experiments were repeated 2-3 times.

[5] = test system: TNBC cells (SUM159 and MDA-MB-231); assay: Senescence β-galactosidase staining; type: cell-based, human; conditions: JQ1 500 nM, 72 h
Description: Cell viability and growth assays (FIGS. 1A-1B, FIGS. 3A-3E, 3G, FIGS. 5D-5F, FIGS. 6C, 6E, 6I, FIG. 7A, FIG. 10D, FIGS. 14A-14C), cycle, apoptosis, and MDR assays were performed in triplicates and repeated 2-3 times. For cell proliferation assays, cells were plated at 500 cells per well in 96-well plates and treated the next day with inhibitors, DMSO or doxycycline (500 ng). Cells were cultured at 37° C. with 5% CO2 in the media described-above, and cell viability was measured using CellTiter-Glo three days after treatments. For cell growth assays, cells were plated at 5000 (SUM159) or 20000 (SUM149) cells per well in 6-well plates and treated the next day with inhibitors. Cells were counted every three days by cell counter. Cellular apoptosis was analyzed with an APC AnnexinV/7ADD Apoptosis Detection kit (BD Pharmingen). AnnexinV/7AAD assessments and cell cycle graphics were generated using FlowJo software V7.6.1 for Windows (Tree Star). Senescence Beta-gal staining was performed using Senescence β-Galactosidase staining kit from Cell signaling. Briefly, after JQ1 treatment (500 nM) for 72 h, SUM159 and MDA-MB-231 cells were fixed by Fixative Solution for 15 min, followed by β-Galactosidase solution incubation overnight at 37° C. The staining was checked under microscope for the development of blue color. […] The cells were analyzed by fluorescent microscope and FACS.

[6] = test system: patient-derived primary human TNBC xenografts; assay: Xenograft assay, patient-derived TNBC; type: in vivo, mice; conditions: two weeks of JQ1, 50 mg/kg daily
Description: as §1

[7] = biological target: T1, chromatin-bound BRD4 in SUM159 cells
Description: Chem-seq was performed essentially as described^27. ChIP-seq: SUM159 and SUM159R cells (4×10^7) were grown in SUM Medium. The media were then removed and replaced with media containing 1% formaldehyde (EM grade; tebu-bio) and crosslinked for 8 min. Crosslinking was quenched by adding glycine to a final concentration of 0.2 M. The cells were washed with ice-cold PBS, harvested in PBS, and the cell pellet was washed with PBS. The nuclear fraction was extracted by first resuspending the pellet in 10 ml of LB1 buffer (50 mM HEPES-KOH [pH 7.5], 140 mM NaCl, 1mMEDTA, 10% glycerol, 0.5% NP-40 or Igepal CA-630, and 0.25% Triton X-100) for 10 min at 4° C. Cells were pelleted, resuspended in 10 ml of LB2 buffer (10 mM Tris-HCL [pH 8.0], 200 mM NaCl, 1 mM EDTA, and 0.5 mM EGTA), and mixed for 5 min. Cells were pelleted and resuspended in 300 μl of LB3 buffer (10 mM Tris-HCl [pH 8], 100 mM NaCl, 1 mM EDTA, 0.5 mM EGTA, 0.1% Na-deoxycholate, and 0.5% N-lauroylsarcosine) and sonicated in a covaris sonicator for 10 min. A total of 30 μl of 10% Triton X-100 was added, and lysate was centrifuged for 10 min at 20,000 rcf to purify the debris. The supernatant was then incubated with 100 μl of magnetic beads (Life Technologies) prebound with 20 μg BRD4 antibody (Bethyl, A301-985A), and immunoprecipitation (IP) was conducted overnight in the cold room. The beads were washed ten times in 1 ml of RIPA buffer and twice in 100 mM ammonium hydrogen carbonate (AMBIC) solution. DNA was eluted in elution buffer (50 mM Tris-HCl pH 8, 10 mM EDTA, and 1% SDS). Cross-links were reversed overnight at 65° C. RNA and protein were digested with 0.2 mg/mL RNase A for 2 hr followed by 0.2 mg/mL Proteinase K for 1 hr. DNA was purified with phenol chloroform extraction and ethanol precipitation. Libraries for Illumina sequencing were prepared following the Rubicon ThruPLEX-FD kit for 10-12 cycles.

With `Cc1sc2c(c1C)C(c1ccc(Cl)cc1)=N[C@@H](CC(=O)OC(C)(C)C)c1nnc(C)n1-2` [JQ1] the “Basal markers (HMW cytokeratins)” value (TNBC cells) was “decrease of high molecular-weight (HMW) cytokeratins”, the “Luminal markers (LMW cytokeratins, CK18)” value (TNBC cells) was “elevation of low molecular-weight (LMW) cytokeratins and cytokeratin 18 (CK18)” and the Tumor growth [1] was “efficiently inhibited the growth of established tumors”. The Tumor growth [2] was “efficiently inhibited the growth of established tumors”, the “BRD4 occupancy at Chem-seq-defined SE regions” value [3] was “depleted of BRD4” and the “Apoptotic response (sub-G1 fraction, Annexin-V staining)” value (SUM159 cells) was “elicited an apoptotic response”. For the same molecule, the “Association of BRD4 with MED1” value [4] was “had no such effect”, the “Acidic β-galactosidase activity (senescence)” value [5] was “markedly increased acidic β-galactosidase activity” and the Tumor growth [6] was “efficiently inhibited the growth of established tumors”. For the same molecule, the “BRD4 occupancy at Chem-seq-defined SE regions” value ([7]; SUM159R, JQ1 exposure) was “retain chromatin-bound BRD4”, the “Displacement of BRD4 from chromatin” value ([7]; SUM159R, following JQ1 treatment) was “not displaced from chromatin” and the “Effect on H3K27ac or global transcription” value ([7]; resistant cells) was “fails to influence”.

From patent US11666580B2, “Mechanism of resistance to bet bromodomain inhibitors” (Dana-Farber Cancer Institute, Inc., priority 2015, dated 2023)
